# According to patent publication US11413254B2, “Application for (2R, 4R)-1,2,4-trihydroxyheptadec-16-yne in preparation of pharmaceutical composition for preventing or treating hepatic injury” (KAOHSIUNG MEDICAL UNIVERSITY, priority 2016, dated 2022):
# Legend:
# [1] = tested on: hepatocellular injury and necrosis caused by carbon tetrachloride; experiment: Hepatocellular injury and necrosis caused by carbon tetrachloride, liver H&E staining; assay type: in vivo; details: male Wistar rats, 100 mg/kg/day TY force fed, 20% carbon tetrachloride/olive oil i.p., FIG. 2
# Description: Example 2. Hepatocellular injury and necrosis caused by carbon tetrachloride were treated by TY. Nine male Wistar rats (200-250 g) were randomly divided into 3 groups, 3 Wistar rats in each group, they were: 1. Healthy control group: force fed with drug solvent of the same volume as TY and intraperitoneal injection of olive oil (2.5 mg/kg); 2. Negative control group (carbon tetrachloride and physiological saline): force fed with physiological saline and intraperitoneal injection of 20% carbon tetrachloride/olive oil of the same volume as TY; 3. Experimental group (carbon tetrachloride and 100 mg/kg/day of TY): force fed 100 mg/kg/day of TY and intraperitoneal injection of 20% carbon tetrachloride/olive oil. First, the physiological saline or TY was administered by force feeding once daily, and the first force feeding was defined as the first day. One hour after the force feeding on the fourth day, Group 1 was given intraperitoneal injection of olive oil (2.5 mg/kg), Groups 2-3 were given intraperitoneal injection of 20% carbon tetrachloride/olive oil (2.5 mg/kg), respectively. The rats were fasted 12 hours after injection, all Wistar rats were sacrificed 12 hours after fasting. After the rats were sacrificed, livers were collected and soaked in formalin, and stained with H&E staining, then observed and images were taken with a microscope.
# [2] = tested on: fatty acid liver disease caused by high fat feed; experiment: Chronic hepatitis of fatty acid liver disease caused by high fat feed, serum liver function indicators; assay type: in vivo, C57BL/6 (B6) mice; details: male B6 mice, 100 mg/kg/day TY force fed, high fat feed (60% fat calorie) 18 weeks
# Description: Example 5. Chronic hepatitis of fatty acid liver disease caused by high fat feed was treated by TY. 15 male, 8-10 weeks old of C57BL/6 (B6) mice (20-22 g) were randomly divided into 3 groups, 4-5 B6 mice in each group, they were: 1. Healthy control group: fed with normal feed (the percentage of fat calories 5-6%); 2. Negative control group: fed with high fat feed (the percentage of fat calorie 60%) and physiological saline; 3. Experimental group: animals were given the same high fat feed as the Negative control group and force fed with 100 mg/kg/day of TY. 1 week before liver injury was induced by high fat feed, the experimental samples began to be given daily, respectively, drug solvent of the same volume as TY to Groups 1 and 2, and 100 mg/kg/daily of TY to Group 3. After 1 week, Groups 2 and 3 began to be given high fat feed, and continuously to be force fed with the drug solvent of the volume same as TY and 100 mg/kg/day of TY for 18 weeks. The mice began to fast on the 18th week, and 12 hours after fasting, all B6 mice were sacrificed. Prior to being sacrificed, blood was collected from the heart and serum was separated for analysis of the biochemical function of the liver.
# [3] = tested on: hepatocellular injury and abnormalities caused by alcohol (ethanol); experiment: Hepatocellular injury and abnormalities caused by alcohol (ethanol), liver H&E staining; assay type: in vivo; details: male Wistar rats, 100 mg/kg/day TY force fed, 50% ethanol, FIG. 4
# Description: Example 4. Hepatocellular injury and abnormalities caused by alcohol (ethanol) were treated by TY. Nine male Wistar rats (200-250 g) were randomly divided into 3 groups, 3 Wistar rats in each group, they were: 1. Healthy control group: force fed with drug solvent of the same volume as TY and force fed with physiological saline (2.5 mg/kg); 2. Negative control group (ethanol and physiological saline): force fed with physiological saline of the same volume as TY and force fed with 50% ethanol; 3. Experimental group (Ethanol and 100 mg/kg/day of TY): force fed 100 mg/kg/day of TY and force fed with 50% ethanol. First, food solvent or TY was administered by force feeding once daily, and the first force feeding was defined as the first day. One hour after force feeding on the fourth day, Group 1 was given physiological saline (2.5 mg/kg), Groups 2-3 were given 50% ethanol injection (2.5 mg/kg), respectively. The rats were force fed with ethanol again 12 hours after the first force feeding, and fasted 12 hours after the second force feeding. After being fasted for 12 hours, all Wistar rats were sacrificed. After the rats were sacrificed, livers were collected and soaked in formalin, and stained with H&E staining, then observed and images taken with a microscope.
# [4] = tested on: acute hepatitis caused by alcohol (ethanol); experiment: Acute hepatitis caused by alcohol (ethanol), serum liver function indicators; assay type: in vivo; details: male Wistar rats, 100 mg/kg/day TY force fed, 50% ethanol
# Description: Example 3. The effect of TY on the treatment of acute hepatitis caused by alcohol (ethanol). Nine male Wistar rats (200-250 g) were randomly divided into 3 groups, 3 Wistar rats in each group, they were: 1. Healthy control group: force fed with physiological saline (2.5 mg/kg) of the same volume as TY; 2. Negative control group (ethanol and physiological saline): force fed with physiological saline of the same volume as TY and force fed with 50% ethanol; 3. Experimental group (ethanol and 100 mg/kg/day of TY): force fed 100 mg/kg/day of TY and force fed with 50% ethanol. First, the drug solvent or TY was administered by force feeding once daily, and the first force feeding was defined as the first day. One hour after force feeding on the fourth day, Group 1 was given physiological saline (2.5 mg/kg), Groups 2-3 were given […] 50% ethanol (2.5 mg/kg), respectively. The rats were force fed with ethanol again 12 hours after the first force feeding, and fasted 12 hours after the second force feeding. After being fasted for 12 hours, all Wistar rats were sacrificed. Prior to being sacrificed, blood was collected from the heart and serum was separated for analysis of the biochemical function of the liver.
# [5] = tested on: fatty acid disease induced by high fat feed; experiment: Hepatocellular injury and abnormalities of fatty acid disease induced by high fat feed, liver H&E staining; assay type: in vivo, C57BL/6 (B6) mice; details: male B6 mice, 100 mg/kg/day TY force fed, high fat feed (60% fat calorie) 18 weeks, FIG. 7
# Description: Example 7. Hepatocellular injury and abnormalities of fatty acid disease induced by high fat feed were treated with TY. 15 male, 8-10 weeks old of C57BL/6 (B6) mice (20-22 g) were randomly divided into 3 groups, and 4-5 B6 mice in each group, they were: 1. Healthy control group: fed with normal feed (the percentage of fat calories 5-6%); 2. Negative control group: fed with high fat feed (the percentage of fat calorie 60%) and force fed with physiological saline; 3. Experimental group: animals were given the same high fat feed as the Negative control group and force fed with 100 mg/kg/day of TY (high fat feed and TY). 1 week before liver injury was induced by the high fat feed, the experimental samples began to be given daily, respectively, the drug solvent of the same volume as TY to Groups 1 and 2, and 100 mg/kg of TY daily to Group 3. After 1 week, Groups 2 and 3 began to be given high fat feed, and continuously to be force fed with the drug solvent of the same volume as TY and 100 mg/kg/day of TY for 18 weeks. The mice began to fast on the 18th week, and 12 hours after fasting, all B6 mice were sacrificed. After the mice were sacrificed, livers were collected and soaked in formalin, stained with H&E staining, and then observed and images taken with a microscope.
# [6] = tested on: acute hepatitis caused by carbon tetrachloride; experiment: Acute hepatitis caused by carbon tetrachloride, serum liver function indicators; assay type: in vivo; details: male Wistar rats, 100 mg/kg/day TY force fed, 20% carbon tetrachloride/olive oil i.p. on fourth day
# Description: Example 1. The effect of TY for the treatment of acute hepatitis caused by carbon tetrachloride was tested. Nine male Wistar rats (200-250 g) were randomly divided into 3 groups, 3 Wistar rats in each group, they were: 1. Healthy control group: force fed with drug solvent and intraperitoneal injection of olive oil (2.5 mg/kg) of the same volume as TY; 2. Negative control group (carbon tetrachloride and physiological saline): force fed with physiological saline and intraperitoneal injection of 20% carbon tetrachloride/olive oil of the same volume as TY; 3. Experimental group (carbon tetrachloride and 100 mg/kg/day of TY): force fed 100 mg/kg/day of TY and intraperitoneal injection of 20% carbon tetrachloride/olive oil. First, the drug solvent or TY was administered by force feeding once daily and the first force feeding was defined as the first day. One hour after force feeding on the fourth day, Group 1 was given intraperitoneal injection of olive oil (2.5 mg/kg), Groups 2-3 were given intraperitoneal injection of 20% carbon tetrachloride/olive oil (2.5 mg/kg), fasted 12 hours after injection, all Wistar rats were sacrificed 12 hours after fasting. Prior to being sacrificed, blood was collected from the heart and serum was separated for analysis of the biochemical function of the liver.
# [7] = tested on: fatty acid liver disease induced by high fat feed; experiment: Serum triglyceride level of mice with fatty acid liver disease induced by high fat feed; assay type: in vivo, C57BL/6 (B6) mice; details: male B6 mice, 100 mg/kg/day TY force fed, high fat feed (60% fat calorie) 18 weeks, FIG. 6
# Description: Example 6. TY decreased serum triglyceride level of the mice with fatty acid liver disease induced by high fat feed. 15 male, 8-10 weeks old of C57BL/6 (B6) mice (20-22 g) were randomly divided into 3 groups, 4-5 B6 mice in each group, and they were: 1. Healthy control group: fed with normal feed (the percentage of fat calories 5-6%); 2. Negative control group: fed with high fat feed (the percentage of fat calorie 60%) and force fed with physiological saline (high fat feed and physiological saline); 3. Experimental group: animals were given the same high fat feed as the Negative control group and force fed with 100 mg/kg/day of TY (high fat feed and TY). 1 week before liver injury was induced by the high fat feed, the experimental samples began to be given daily, respectively, drug solvent of the same volume as TY to Groups 1 and 2, and 100 mg/kg of TY daily to Group 3. after 1 week, Groups 2 and 3 began to be given high fat feed, and continuously to be force fed with the drug solvent of the same volume as TY and 100 mg/kg/day of TY for 18 weeks. The mice began to fast on the 18th week, and 12 hours after fasting, all B6 mice were sacrificed. Prior to being sacrificed, blood was collected from the heart and serum was separated for analysis of the serum triglyceride level.
compound,measurement,setting,value
"C#CCCCCCCCCCCC[C@@H](O)C[C@@H](O)CO [TY, (2R,4R)-1,2,4-trihydroxy heptadec-16-yne]",hepatocellular necrosis near the central vein caused by carbon tetrachloride (H&E staining),[1],capable of effectively reducing hepatocellular necrosis near the central vein
same,liver function indicator GOT/AST increased by the high-fat feed,[2]; FIG. 5A,significantly decreased
same,liver function indicator GPT/ALT increased by the high-fat feed,[2]; FIG. 5B,significantly decreased
same,liver injury and tissue abnormalities caused by ethanol (H&E staining),[3],capable of reducing the liver injury and tissue abnormalities
same,liver function indicator GOT/AST increased by ethanol,[4]; FIG. 3A,significantly decreased
same,liver function indicator GPI/ALT increased by ethanol,[4]; FIG. 3B,significantly decreased
same,liver injury and tissue abnormalities caused by the high fat feed (H&E staining),[5],capable of reducing the liver injury and tissue abnormalities
same,liver function indicator GOT/AST increased by carbon tetrachloride,[6]; FIG. 1A,significantly decreased
same,liver function indicator GPI/ALT increased by carbon tetrachloride,[6]; FIG. 1B,significantly decreased
same,serum triglyceride level increased by the high-fat diet,[7],significantly decreased
